# Data as given in patent US20100160324A1, “PYRAZOLE DERIVATIVES AS THAT MODULATE THE ACTIVITY OF CDK, GSK AND AURORA KINASES” (ASTEX THERAPEUTICS LIMITED, priority 2004, published 2010).
# How the values were obtained:
# [1] = test system: malignant cells from B-cell chronic lymphocytic leukemia (B-CLL); settings: in vitro; cited from earlier work
# CDK1/CyclinB = target: T1, CDK1/CyclinB (Homo sapiens, UniProt P06493); experiment: Activated CDK1/CyclinB activity assay; format: biochemical; settings: read-out: IC50 against CDK1 activity
# T1 construct: purchased Upstate Discovery
# T1 sequence (P06493 whole entry): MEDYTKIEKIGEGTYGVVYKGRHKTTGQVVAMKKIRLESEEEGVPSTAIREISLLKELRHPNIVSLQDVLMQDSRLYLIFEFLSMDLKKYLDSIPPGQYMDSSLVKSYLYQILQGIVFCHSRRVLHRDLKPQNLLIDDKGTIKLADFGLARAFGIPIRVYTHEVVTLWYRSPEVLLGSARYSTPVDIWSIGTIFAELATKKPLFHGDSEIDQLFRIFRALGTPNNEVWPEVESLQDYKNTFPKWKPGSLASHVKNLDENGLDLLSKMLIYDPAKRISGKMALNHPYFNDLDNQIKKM
# T1 sequence (P14635 whole entry partner): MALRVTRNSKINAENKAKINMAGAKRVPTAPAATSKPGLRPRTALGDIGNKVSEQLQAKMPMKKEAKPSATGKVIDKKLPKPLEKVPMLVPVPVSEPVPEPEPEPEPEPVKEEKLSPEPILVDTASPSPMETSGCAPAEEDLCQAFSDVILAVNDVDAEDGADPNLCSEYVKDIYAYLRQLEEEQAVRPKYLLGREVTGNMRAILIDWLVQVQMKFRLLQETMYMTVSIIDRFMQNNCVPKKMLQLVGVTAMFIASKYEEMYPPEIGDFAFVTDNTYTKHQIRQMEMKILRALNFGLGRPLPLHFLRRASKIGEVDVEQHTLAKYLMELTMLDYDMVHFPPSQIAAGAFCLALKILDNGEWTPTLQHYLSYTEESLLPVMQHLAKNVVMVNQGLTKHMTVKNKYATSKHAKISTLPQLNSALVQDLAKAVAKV
# Protocol: Measurement of Activated CDK1/Cycling Activity Assay (IC50)
# CDK1/CyclinB assay is identical to the CDK2/CyclinA above except that CDK1/CyclinB (Upstate Discovery) is used and the enzyme is diluted to 6.25 nM.
# Activated CDK2/CyclinA = Activated CDK2/CyclinA (Homo sapiens, UniProt P24941); experiment: Activated CDK2/CyclinA kinase inhibitory activity assay; format: biochemical; settings: read-out: IC50 against CDK2 activity
# Protocol: Measurement of Activated CDK2/CyclinA Kinase Inhibitory Activity Assay (IC50)
# Compounds of the invention were tested for kinase inhibitory activity using the following protocol.
# Activated CDK2/CyclinA (Brown et al, Nat. Cell Biol., 1, pp 438-443, 1999; Lowe, E. D., et al Biochemistry, 41, pp 15625-15634, 2002) is diluted to 125 pM in 2.5× strength assay buffer (50 mM MOPS pH 7.2, 62.5 mM β-glycerophosphate, 12.5 mM EDTA, 37.5 mM MgCl2, […], 2.5 mM DTT, 2.5 mM sodium orthovanadate, 0.25 mg/ml bovine serum albumin), and 10 μl mixed with 10 μl of histone substrate mix (60 μl bovine histone H1 (Upstate Biotechnology, 5 mg/ml), 940 μl H2O, 35μ Ci γ^33P-ATP) and added to 96 well plates along with 5 μ of various dilutions of the test compound in DMSO (up to 2.5%). The reaction is allowed to proceed for 2 to 4 hours before being stopped with an excess of ortho-phosphoric acid (5 μl at 2%).
# γ^33P-ATP which remains unincorporated into the histone H1 is separated from phosphorylated histone H1 on a Millipore MAPH filter plate. The wells of the MAPH plate are wetted with 0.5% orthophosphoric acid, and then the results of the reaction are filtered with a Millipore vacuum filtration unit through the wells. […] Once the filters have dried, 20 μl of Microscint 20 scintillant is added, and then counted on a Packard Topcount for 30 seconds. […]
# [2] = test system: treatment-refractory primary Acute Myelogenous Leukemia (AML) cells from patients; settings: cited from earlier work
structure (smiles),measurement,setting,value
CC[C@H](CO)Nc1nc(NCc2ccccc2)c2ncn(C(C)C)c2n1 [CYC 202],apoptosis of malignant B-CLL cells,[1],induce in vitro apoptosis
"O=C(Nc1c[nH]nc1-c1cccnc1)c1c(F)cccc1F [Example 1, 2,6-difluoro-N-(3-pyridin-3-yl-1H-pyrazol-4-yl)-benzamide]",IC50,CDK1/CyclinB,< 1000 nM
same,IC50,Activated CDK2/CyclinA,< 1000 nM
CN1CC[C@H](c2c(O)cc(O)c3c(=O)cc(-c4ccccc4Cl)oc23)[C@H](O)C1 [Flavopiridol],apoptosis of malignant B-CLL cells,[1],induce in vitro apoptosis
Cc1cc(Nc2cc(N3CCN(C)CC3)nc(Sc3ccc(NC(=O)C4CC4)cc3)n2)n[nH]1 [VX-680],killing of treatment-refractory primary AML cells,[2],potently killed
